# Test results as given in US5807535A, “Metal complexes of hydroxyaryl containing aminocarboxylic acid chelating agents” (Australian Nuclear Science & Technology Organisation, priority 1992, dated 1998).
# What was measured:
# [1] = Biodistribution of 67Ga complexes in mice; type: in vivo, balb/c mice
# Protocol: To ligand (50 μL, 10 mg/mL, 0.2 M NaOAc, […]) was added ^67 Ga citrate (18.5 MBq) and the resultant mixture diluted to 1 mL (0.2 M NaOAc, pH 7). The pH was adjusted to 12 with 1 M NaOH (20 μL) and heated at 40° C. for 40 min. The final volume was adjusted (to 5 mL) with saline and sterilised by filtering through a 0.22 μm filter.
# Each animal was injected via tail vein with ^67 Ga complex (100 μL, ~3.7×10^5 Bq). Animals were sacrificed at various time intervals (5 animals per time point/6 time points). Data are illustrated in FIG. 26-30 and in Tables 13-17.
# Each ^67 Ga-ligand complex has been evaluated in balb/c mice. […] (see FIG. 26-30).
# [2] = Biodistribution of 99mTc complexes in mice; type: in vivo, Balb/c mice
# From the text: A series of derivatives incorporating carboxyl and phenolate donor groups (1-6) were synthesised by literature method and their radiolabelling characteristic and biological behaviour evaluated. Initial work involved an investigation of radiochemical properties of the ^99m Tc complexes of the ligands and their biodistribution in rats and mice (see Tables 1-6 and 8-12).
# A typical method of radiolabelling of the chelator was achieved by dissolving the chelator in a basic solution of saline. The pH was then adjusted to approx. 6 with HCl. Excess stannous chloride was added to the resultant solution followed by one equivalent volume of sodium ^99m TcO4 (10-50 mCi/ml). Final concentration of the chelator was approx. 1 mg/ml. The efficacy of labelling was determined by ITLC-SG. For each product only one main radiochemical species was observed. Each complex was diluted to 15 μCi/100 μl with saline. […] (See FIGS. 1A and 1B).
smiles,measurement,setting,value
O=C(O)CN(CCN(CC(=O)O)CC(=O)Nc1ccc(Cl)cc1O)CC(=O)Nc1ccc(Cl)cc1O [Compound 2],biodistribution bone,[1]; 1 min,6.16 % ID
same,biodistribution kidney,[1]; 1 min,9.54 % ID
same,biodistribution liver,[1]; 1 min,24.9 % ID
same,biodistribution lungs,[1]; 1 min,1.79 % ID
same,biodistribution muscle,[1]; 1 min,20.55 % ID
same,biodistribution skin,[1]; 1 min,11.55 % ID
same,biodistribution spleen,[1]; 1 min,0.29 % ID
same,biodistribution bone,[1]; 3 min,2.82 % ID
same,biodistribution kidney,[1]; 3 min,4.62 % ID
same,biodistribution liver,[1]; 3 min,35.52 % ID
same,biodistribution lungs,[1]; 3 min,0.56 % ID
same,biodistribution muscle,[1]; 3 min,8.63 % ID
same,biodistribution skin,[1]; 3 min,9.27 % ID
same,biodistribution spleen,[1]; 3 min,0.1 % ID
same,biodistribution bone,[1]; 5 min,2.13 % ID
same,biodistribution kidney,[1]; 5 min,3.52 % ID
same,biodistribution liver,[1]; 5 min,33.09 % ID
same,biodistribution lungs,[1]; 5 min,0.41 % ID
same,biodistribution muscle,[1]; 5 min,5.50 % ID
same,biodistribution skin,[1]; 5 min,8.04 % ID
same,biodistribution spleen,[1]; 5 min,0.07 % ID
same,biodistribution bone,[1]; 10 min,0.74 % ID
same,biodistribution kidney,[1]; 10 min,1.00 % ID
same,biodistribution liver,[1]; 10 min,23.34 % ID
same,biodistribution lungs,[1]; 10 min,0.12 % ID
same,biodistribution muscle,[1]; 10 min,2.00 % ID
same,biodistribution skin,[1]; 10 min,3.80 % ID
same,biodistribution spleen,[1]; 10 min,0.02 % ID
same,biodistribution bone,[1]; 30 min,0.50 % ID
same,biodistribution kidney,[1]; 30 min,0.21 % ID
same,biodistribution liver,[1]; 30 min,3.7 % ID
same,biodistribution muscle,[1]; 30 min,2.00 % ID
same,biodistribution skin,[1]; 30 min,0.88 % ID
same,biodistribution spleen,[1]; 30 min,0.02 % ID
same,biodistribution bone,[1]; 120 min,0.38 % ID
same,biodistribution kidney,[1]; 120 min,0.01 % ID
same,biodistribution liver,[1]; 120 min,0.92 % ID
same,biodistribution muscle,[1]; 120 min,0.31 % ID
same,biodistribution skin,[1]; 120 min,0.17 % ID
same,biodistribution spleen,[1]; 120 min,0 % ID
same,biodistribution GIT,[2]; 1 min,3.74 % Injected dose
same,biodistribution blood,[2]; 1 min,23.14 % Injected dose
same,biodistribution bone,[2]; 1 min,7.88 % Injected dose
same,biodistribution heart,[2]; 1 min,0.49 % Injected dose
same,biodistribution kidney,[2]; 1 min,8.04 % Injected dose
same,biodistribution liver,[2]; 1 min,14.68 % Injected dose
same,biodistribution lungs,[2]; 1 min,1.36 % Injected dose
same,biodistribution muscle,[2]; 1 min,19.67 % Injected dose
same,biodistribution skin,[2]; 1 min,13.37 % Injected dose
same,biodistribution spleen,[2]; 1 min,0.19 % Injected dose
same,biodistribution stomach,[2]; 1 min,0.67 % Injected dose
same,biodistribution tail,[2]; 1 min,4.05 % Injected dose
same,biodistribution urine,[2]; 1 min,0.09 % Injected dose
same,biodistribution GIT,[2]; 3 min,4.86 % Injected dose
same,biodistribution blood,[2]; 3 min,14.96 % Injected dose
same,biodistribution bone,[2]; 3 min,6.29 % Injected dose
same,biodistribution heart,[2]; 3 min,0.34 % Injected dose
same,biodistribution kidney,[2]; 3 min,10.44 % Injected dose
same,biodistribution liver,[2]; 3 min,14.52 % Injected dose
same,biodistribution lungs,[2]; 3 min,1.19 % Injected dose
same,biodistribution muscle,[2]; 3 min,14.89 % Injected dose
same,biodistribution skin,[2]; 3 min,13.1 % Injected dose
same,biodistribution spleen,[2]; 3 min,0.16 % Injected dose
same,biodistribution stomach,[2]; 3 min,0.998 % Injected dose
same,biodistribution tail,[2]; 3 min,6.89 % Injected dose
same,biodistribution urine,[2]; 3 min,2.78 % Injected dose
same,biodistribution GIT,[2]; 5 min,3.38 % Injected dose
same,biodistribution blood,[2]; 5 min,7.4 % Injected dose
same,biodistribution bone,[2]; 5 min,2.99 % Injected dose
same,biodistribution heart,[2]; 5 min,0.22 % Injected dose
same,biodistribution kidney,[2]; 5 min,5.45 % Injected dose
same,biodistribution liver,[2]; 5 min,7.75 % Injected dose
same,biodistribution lungs,[2]; 5 min,0.72 % Injected dose
same,biodistribution muscle,[2]; 5 min,6.73 % Injected dose
same,biodistribution skin,[2]; 5 min,7.96 % Injected dose
same,biodistribution spleen,[2]; 5 min,0.07 % Injected dose
same,biodistribution stomach,[2]; 5 min,0.6 % Injected dose
same,biodistribution tail,[2]; 5 min,30.12 % Injected dose
same,biodistribution urine,[2]; 5 min,1.06 % Injected dose
same,biodistribution GIT,[2]; 10 min,8.11 % Injected dose
same,biodistribution blood,[2]; 10 min,7.15 % Injected dose
same,biodistribution bone,[2]; 10 min,2.76 % Injected dose
same,biodistribution heart,[2]; 10 min,0.15 % Injected dose
same,biodistribution kidney,[2]; 10 min,5.14 % Injected dose
same,biodistribution liver,[2]; 10 min,7.95 % Injected dose
same,biodistribution lungs,[2]; 10 min,0.53 % Injected dose
same,biodistribution muscle,[2]; 10 min,8.73 % Injected dose
same,biodistribution skin,[2]; 10 min,11.02 % Injected dose
same,biodistribution spleen,[2]; 10 min,0.06 % Injected dose
same,biodistribution stomach,[2]; 10 min,1.3 % Injected dose
same,biodistribution tail,[2]; 10 min,18.31 % Injected dose
same,biodistribution urine,[2]; 10 min,2.67 % Injected dose
same,biodistribution GIT,[2]; 30 min,16.24 % Injected dose
same,biodistribution blood,[2]; 30 min,3.58 % Injected dose
same,biodistribution bone,[2]; 30 min,2.27 % Injected dose
same,biodistribution heart,[2]; 30 min,0.09 % Injected dose
same,biodistribution kidney,[2]; 30 min,4 % Injected dose
same,biodistribution liver,[2]; 30 min,5.71 % Injected dose
same,biodistribution lungs,[2]; 30 min,0.43 % Injected dose
same,biodistribution muscle,[2]; 30 min,5.48 % Injected dose
same,biodistribution skin,[2]; 30 min,5.58 % Injected dose
same,biodistribution spleen,[2]; 30 min,0.05 % Injected dose
same,biodistribution stomach,[2]; 30 min,2.06 % Injected dose
same,biodistribution tail,[2]; 30 min,7.67 % Injected dose
same,biodistribution urine,[2]; 30 min,3.84 % Injected dose
Nc1ccc(O)c(NC(=O)CN(CCN(CC(=O)O)CC(=O)Nc2cc(N)ccc2O)CC(=O)O)c1 [Compound 5],biodistribution urine,[1]; 1 min,6.30 % ID
same,biodistribution urine,[1]; 3 min,8.94 % ID
same,biodistribution urine,[1]; 5 min,15.34 % ID
same,biodistribution urine,[1]; 10 min,14.23 % ID
same,biodistribution urine,[1]; 30 min,7.76 % ID
same,biodistribution urine,[1]; 120 min,3.55 % ID
same,biodistribution bone,[2]; 1 min,6.02 % Injected dose
same,biodistribution kidney,[2]; 1 min,9.08 % Injected dose
same,biodistribution liver,[2]; 1 min,5.72 % Injected dose
same,biodistribution muscle,[2]; 1 min,23.78 % Injected dose
same,biodistribution skin,[2]; 1 min,18.09 % Injected dose
same,biodistribution spleen,[2]; 1 min,0.14 % Injected dose
same,biodistribution urine,[2]; 1 min,0 % Injected dose
same,biodistribution kidney,[2]; 3 min,8.71 % Injected dose
same,biodistribution liver,[2]; 3 min,5.04 % Injected dose
same,biodistribution muscle,[2]; 3 min,15.39 % Injected dose
same,biodistribution skin,[2]; 3 min,19.66 % Injected dose
same,biodistribution spleen,[2]; 3 min,0.16 % Injected dose
same,biodistribution urine,[2]; 3 min,2.97 % Injected dose
same,biodistribution kidney,[2]; 5 min,6.71 % Injected dose
same,biodistribution liver,[2]; 5 min,4.34 % Injected dose
same,biodistribution muscle,[2]; 5 min,11.74 % Injected dose
same,biodistribution skin,[2]; 5 min,19.83 % Injected dose
same,biodistribution spleen,[2]; 5 min,0.12 % Injected dose
same,biodistribution urine,[2]; 5 min,6.52 % Injected dose
same,biodistribution kidney,[2]; 10 min,5.97 % Injected dose
same,biodistribution liver,[2]; 10 min,5.34 % Injected dose
same,biodistribution muscle,[2]; 10 min,9.67 % Injected dose
same,biodistribution skin,[2]; 10 min,23.93 % Injected dose
same,biodistribution spleen,[2]; 10 min,0.11 % Injected dose
same,biodistribution urine,[2]; 10 min,10.66 % Injected dose
same,biodistribution kidney,[2]; 30 min,3.75 % Injected dose
same,biodistribution liver,[2]; 30 min,2.86 % Injected dose
same,biodistribution muscle,[2]; 30 min,23.84 % Injected dose
same,biodistribution skin,[2]; 30 min,17.37 % Injected dose
same,biodistribution spleen,[2]; 30 min,0.06 % Injected dose
same,biodistribution urine,[2]; 30 min,5.91 % Injected dose
